Results reported in US11214567B2, “Small molecule inhibitors of MYC and uses thereof” (The Regents of the University of Michigan, priority 2017, dated 2022).
Entries after “also recorded” stand apart in the source; their conditions may differ.

How the values were obtained:
[1] = system: NCI/ADR-RES; assay: MTT assay (cytotoxicity), NCI/ADR-RES; format: cell-based, human
Description: (§1) The evaluation of cytotoxicity was based on the reduction of MTT dye by viable cells to give purple formazan products, which can be measured spectrophotometrically at 540 nm. One hundred eighty microliters of cancer cells were seeded into 96-well plates at 3,500-4,000 cells/well and incubated at 37° C. overnight before the indicated treatments. After 72 h, 20 μl of MTT solution (3 mg/ml) was added and incubated again for 3 h. After removal of media and solubilization of formazan crystals in 150 μL of DMSO, the absorbance was measured at 570 nm. Percentage of cell growth inhibition was expressed as 1-[(A−B)/(C−B)]×100% (A, B and C were the absorbance values from experimental, blank and control cells, respectively).
(§2) KJA derivatives were tested by the MTT assay against five human cancer cell lines including ovarian cancer cell lines (OVCAR-8, NCI/ADR-RES and SKOV3) and pancreatic cancer cell lines (MIA PaCa-2 and Pac-1). […] It is important to note that the NCI/ADR-RES cell line shares a large number of karyotypic abnormalities with OVCAR-8 but expresses high levels of MDR1 (multidrug resistance protein 1)/P-glycoprotein (see, e.g., Xu, S.; et al., Proceedings of the National Academy of Sciences 2012, 109, 16348-16353), resulting in resistance to multiple anticancer drugs in clinical use, including paclitaxel and doxorubicin.

[2] = system: OVCAR8; assay: MTT assay (cytotoxicity), OVCAR8; format: cell-based; conditions: Homo sapiens, OVCAR-8, 72 h, drug concentration causing a 50% decrease in cell population
Description: as §1, §2

[3] = system: GLIPR1; assay: Western blotting of GLIPR1 protein levels; format: cell-based, human; conditions: NCI/ADR-RES; Western blot
[4] = system: TXNIP; assay: Western blotting of TXNIP protein levels; format: cell-based, human; conditions: NCI/ADR-RES; Western blot
[5] = system: MIA PaCa-2; assay: MTT assay (cytotoxicity), MIA PaCa-2; format: cell-based; conditions: Homo sapiens, 72 h, drug concentration causing a 50% decrease in cell population
Description: as §1, §2

[6] = system: C-MYC; assay: Western blotting of C-MYC protein levels in cancer cells; format: cell-based, human
Description: Cells (5×10^5) were cultured in 6-well plate and treated with KJA03 at designated concentrations. After treatment, cells were lysed with cell lysis buffer on ice at 4° C., sonicated for 3 min, centrifuged (12,000 rpm, 10 min, 4° C.) and then, the supernatant was collected. Protein concentrations of supernatants were evaluated with BCA assay. Proteins were resolved in 10% SDS/PAGE and electrotransferred to Immun-Blot PVDF membrane (Bio-Rad). After blocking with 5% milk in TBST (Tris-buffered saline with 0.1% Tween 20), membranes were probed with primary antibodies (anti-PARP, anti-caspase 3 and anti-GAPDH) 1:1000 dilutions overnight at 4° C. Membranes were then washed with TBST (5 min×3), incubated with Dylight 800-conjugated secondary antibodies 1:7500 dilutions in 5% milk for 1 h at room temperature, and washed with TBST (5 min×3). Fluorescent signal was then scanned by Odyssey Imaging Systems (LI-COR Biosciences).
The effect of KJA03 on the MYC protein levels, including C-MYC and N-MYC, NCI/ADR-RES cells were treated with KJA03 at concentration of 0.1 (half IC50) and 0.2 (IC50) μM for 24 and 48 h. […] It has previously been reported that JQ1 treatment leads to down-regulation of c-MYC protein levels in osteosarcoma, leukemia and lymphoma cells (see, e.g., Mertz, J. A.; et al., Proceedings of the National Academy of Sciences 2011, 108, 16669-16674).
Experiments were conducted to further repeat the experiment and JQ1 was chosen as a positive control. As expected, expression of C-MYC was reduced by KJA03 at 24 h of treatment, correlated with previous experiment (FIG. 3).
Experiments were conducted that further performed a time-course experiment to evaluate C-MYC suppression including 2, 6, 8 24 and 48 h at concentration of 0.2 μM. To define the specificity of MYC suppression in further detail, we treated cells with a range of compound concentrations at 24 h. […] To determine whether KJA03 can suppress C-MYC in different cell lines, we next investigated the level of C-MYC in response to treatment with KJA03 at 0.2 μM using other three different OVCAR8, MIA PaCa-2 and Panc-1 cell lines.

Cc1ccc(-c2noc(-c3ccccc3-n3c(-c4ccc(C)cc4)noc3=O)n2)cc1 [KJA03, 3-(P-tolyl)-4-(2-(3-(p-tolyl)-1,2,4-oxadiazol-5-yl)phenyl)-1,2,4-oxadiazol-5(4H)-one]
IC50 ([1]; Homo sapiens, NCI/ADR-RES, MTT, 72 h, drug concentration causing a 50% decrease in cell population): 200 ± 60 nM | growth of NCI/ADR-RES ([1]; MTT assay after 72 h treatment): inhibited growth | IC50 [2]: 140 ± 50 nM | GLIPR1 protein levels [3]: gradually upregulated; also recorded: up-regulated | TXNIP protein levels [4]: downregulated; also recorded: down-regulated dose-dependently | IC50 [5]: 130 nM | MYC suppression, ovarian versus pancreatic cancer cells ([6]; 0.2 μM, OVCAR8, NCI/ADR-RES, MIA PaCa-2 and Panc-1): suppresses MYC strongly in ovarian cancer cells | MYC protein levels ([6]; 0.1 (half IC50) and 0.2 (IC50) μM at 24 and 48 h): significantly reduce MYC protein levels | C-MYC protein levels, range of concentrations ([6]; MiaPaca-2): down-regulated dose-dependently | C-MYC protein levels ([6]; NCI/ADR-RES cells, 0.2 μM, 24 h): reduced C-MYC levels; also recorded: efficiently decrease the C-MYC protein levels | C-MYC suppression, time-course ([6]; NCI/ADR-RES, 0.2 μM, 2, 6, 8, 24 and 48 h): significantly suppressed only at 24 h | C-MYC protein levels, range of concentrations ([6]; NCI/ADR-RES, 24 h): decreased levels of C-MYC in a dose-dependent manner; also recorded: down-regulated dose-dependently | C-MYC protein levels, range of concentrations ([6]; OVCAR8): down-regulated dose-dependently | C-MYC protein levels, range of concentrations ([6]; Pac-1): down-regulated dose-dependently
